{"source": "patent US20260042801A1", "about": "“COMPOSITIONS AND METHODS FOR DYE-BOUND CYCLIZED PEPTIDES FOR MEDICAL USE” (The Texas A&M University System, priority 2022, published 2026)", "assay_type_in_all_cases": "cell-based, mouse", "key": {"[1]": {"tested_on": "primary adult cortical neurons", "test": "Primary adult cortical neuron culture: survival and neurite outgrowth", "conditions": "adult neurons from 6-month-old mice, 2 days with 5c(i)", "method": "FIGS. 3A-3C: 5c(i) augments neuritogenesis and neuron survival. Primary adult cortical neurons from 6-month-old female mice were treated with 5c(i) for 2 days. 5c(i) was added at the time of cell plating. Cells were fixed 2 days after cell plating. 3A) Graph represents mean±SEM of percent change in neurite outgrowth per cell and number of surviving neurons. Representative images of 3B) Vehicle and 3C) 5000 nM 5c(i) treated groups. Linear regression was conducted to determine statistical significance. […] Scale bar=50 μm.\nFor all cell culture experiments, primary neural cells were extracted from the cortices of […] mice. The extraction, purification, and separation of neurons and glia was conducted as previously before^58 covered under patent application WO2022266431, incorporated by reference herein in its entirety. Briefly, after euthanization of mice, the brains were microdissected and placed in papain filled GENTLEMACS™ (tissue dissector) C Tubes followed by cell dissociation using the GENTLEMACS™ (tissue dissector) Octo Dissociator with Heaters with heating cuffs using the GENTLEMACS™ (tissue dissector) Program 37C_ABDK_01 protocol. After protocol completion, the contents were strained through a 70 μm cell strainer, debris and red blood cells were removed, and the remaining solution was labeled with glia specific antibodies. […]"}, "C3": {"tested_on": "C3", "test": "Astrocyte C3 staining (fluorescent intensity)", "conditions": "astrocytes from 6-month-old male mice, 5 μM, 3 days", "method": "FIGS. 4A-4D: 5c(i) induces Synapsin I production and reduces C3 and GSK-3s expression from astrocytes promoting neuron survival and neurite growth. Primary adult cortical astrocytes from 6-month-old male mice were incubated with 5 μM 5c(i) for 3 days. Graph represents mean±SEM of percent change in fluorescent intensity (Synapsin I and C3) or chemiluminescence (GSK-3β) relative to Vehicle (4A and 4D). Images represent the 4B) Vehicle and 4C) 5 μM 5c(i) treated groups stained with Synapsin I and DAPI. D) Cortical astrocytes from 6-month-old male mice were plated and treated with 5c(i) or Vehicle for 2 days. Cells were then washed and cortical neurons from 6-month-old male mice were added on top of the astrocytes. […] Scale bar=50 μm.\nTo determine if 5c(i) can modulate astrocytes, adult astrocytes from 6-month-old male mice were treated with 5c(i) for 3 days and stained with Synapsin I and C3 to measure changes in fluorescent intensity or western blot was conducted on the cell lysate to assess changes in GSK-3β expression (FIG. 4). […] To determine if 5c(i) treated astrocytes can directly benefit neuronal recovery, astrocytes were cultured with 5c(i) for 2 days before removing 5c(i) from the culture and plating adult neurons on top of the astrocytes for 2DIV, resulting in increased neuron survival and neurite growth. […]"}, "[2]": {"tested_on": "primary adult cortical astrocytes", "test": "Astrocyte scratch assay (injury model)", "conditions": "astrocytes from 6-month-old female mice, 48 hours after scratching", "method": "FIGS. 5A-5C: 5c(i) reduces injury size. Primary adult cortical astrocytes from 6-month-old female mice were scratched to form the injury model and immediately after were incubated with 5c(i) for 48 hours (5A). Graph represents mean t SEM. Images represent the 5B) Vehicle and 5C) 5000 nM 5c(i) treated groups stained with Phalloidin. Linear regression was conducted to determine statistical significance. N=10. Scale bar=500 μm.\nFor neuronal cultures, the neuron enriched fraction was added onto plastic bottom (Greiner-Bio, 781091) plates and incubated inside a 5% C02 incubator at 37° C. for 2 days. Pharmaceutical agents were added at the time of cell plating. For astrocyte cultures, the glia fraction was added onto plastic bottom (Greiner-Bio, 781091) plates and incubated inside a 5% C02 incubator at 37° C. for 5 days for 100% confluency to be reached. Then, the astrocytes were scratched to form the scratch assay model and the pharmaceutical agents were added at the time of scratching. 10,000 cells were plated per well with 0.056 cm^2 growth area for both the neuronal and glia cultures.\nCell cultures were fixed with 4% paraformaldehyde (PFA, 15 min) after the completion of the respective in vitro experiment. […]"}}}
{"substance": "C-DIRG-C BODIPY® (fluorescent dye) [5c(i)]", "values": [{"measurement": "increase in neurite outgrowth", "setting": "[1]", "value": 42, "unit": "%"}, {"measurement": "increase in neuron survival", "setting": "[1]", "value": 94, "unit": "%"}, {"measurement": "C3 expression", "setting": "C3", "value": "reduction"}, {"measurement": "artificial wound closure", "setting": "[2]", "value": "closing at an expedited rate"}]}
